Test results from article PMC9321718 (Pharmaceuticals, 2022).
Values after ≈ are worked out from the molar mass of the structure shown. “Also recorded” adds a separate entry of the source. Where two headings read alike, the source gives them in different places.

Experiments:
[1] = Dissociation constant of complexes with HPCD by FTIR spectroscopy; assay type: physicochemical; settings: complex with HPCD, aqueous solutions, 22 °C
From the text: Changes in the microenvironment of chemical bonds, functional groups, protonation/deprotonation, or the formation of non-valent interactions between the receptor and the ligand (in this case, the formation of guest–host inclusion complexes of CD with EG and apiol molecules) leads to a change in the intensity or position of characteristic peaks in the IR spectra. […] The above-indicated peaks in the IR spectra are composite which was visually confirmed by the changes in the shape of peaks and even the appearance of shoulders when the APAB was turned on in the CD cavity. To separate the complex peaks into components, increase sensitivity and obtain more detailed information, the differentiation method was used. The shifts of minima/maxima of the second derivative of spectra (Figure 2B) in allyl ν(C=C) and aromatic ν(C–C) regions were the most prominent. […]
ATR-FTIR spectra of samples’ solutions (point 3.3.1) were recorded using a Bruker Tensor 27 spectrometer equipped with a liquid nitrogen cooled MCT (mercury cadmium telluride) detector. […] ATR-FTIR spectra of solid samples placed on KBr glass were recorded using a Bruker Lumos II IR microscope in the region from 700 to 4000 cm^−1 with 1 cm^−1 spectral resolution with scanning in the area on average 1 × 1 microns. […]

[2] = test system: B. subtilis (NCIB 8054); test: Agar diffusion test, MIC; assay type: cell-based, Bacillus subtilis; settings: Bacillus subtilis
Experimental: The strains used in this study were Escherichia coli (NCIB 12210) and Bacillus subtilis (NCIB 8054) from National Resource Center All-Russian collection of industrial microorganisms SIC “Kurchatov Institute”). The culture was cultivated for 18–20 h at 37 °C to CFU ≈ 5 × 10^6 – 8 × 10^6 (determined by A600) in liquid nutrient medium Luria–Bertani (pH 7.2): E. coli—without stirring, B. subtilis—with stirring 180 rpm.
(§1) The study of the antibacterial effect of Lev and adjuvants was carried out by (a) agar diffusion test and (b) broth micro-dilution method. (a) A measured 500 µL of 100-fold culture dilution was evenly distributed over a solid nutrient medium (LB, pH 7.2) on a Petri dish. After 20 min, agar disks with a diameter of 9 mm were removed from the cups and 50 µL of the test samples were placed in the formed wells at the required concentration in a sterile PBS buffer (see Section 3.3 (2)). After 30 min, Petri dishes were placed in a 37 °C thermostat. After 24 h, the diameters of the growth inhibition zones were measured. Minimum inhibitory concentrations (MICs) are determined as the infimum of multiple concentrations of an antimicrobial that inhibits the visible growth of a microorganism after overnight incubation. (b) According to the standard broth micro-dilution method, 200 µL of the overnight culture (5 × 10^6 CFU) was placed into a 96 micro-titer plate wells. Then 50 µL of tested samples was added. The range of tested Lev concentration was 4–200 ng/mL, adjuvants concentration was in the range of 0.008–2 mg/mL. Optical density measurements at 600 nm were taken at various times (0, 3, and 18 h) to determine the number of cells. The dependence of CFU (determined by A600) on the concentration of Lev, APAB or terpenoid (briefly X) was approximated according to the Boltzmann equation (Origin software): CFU = (control CFU)/(1 + exp(([X] − MIC50)/constant value)). MIC50 and MIC90 are defined as concentrations at which the inhibition of bacterial growth by 50 and 90% is noticeable, respectively. In other words, the concentration at which the ordinate value (CFU) is equal to 50 or 10% of the control sample minus the background.

[3] = test system: E. coli; test: Synergy of adjuvant-MCD with Lev-MCD, growth inhibition zones in agar; assay type: cell-based, Escherichia coli; settings: for D, diameter of bacterial inhibition zone surrounding Lev–MCD with APAB-MCD: Lev-MCD + X-MCD (1:2), ±0.5; for ϕLev = (D/DLev)^2: ±0.1; for FICI: ±15%; for increase in Lev antibacterial activity / efficacy: growth inhibition diameter measurement in agar, inclusion complexes with MCD
Experimental: We obtained complex formulations containing adjuvants-MCD and Lev-MCD. These complexes were referred to as enhanced Lev. The synergy effect was studied at a constant concentration of Lev and a variable concentration of an enhancer. […] Based on the D/DLev ratio, the effectiveness of cooperative antibacterial action (ϕ) of the adjuvant and Lev was calculated. The fractional inhibitory concentration (FIC) parameter was introduced: at a fixed Lev concentration, the FIC of adjuvant corresponds to the minimum fractional adjuvant concentration at which the antibacterial effect was still manifest (MICadjuvant in the presence of Lev). The fractional inhibitory concentration index (FICI) characterizes the ratio of the active Lev and adjuvant concentrations to the MIC values of these substances individually: FICI=[Lev]/MIC(Lev)[…][adjuvant]/MIC(adjuvant) (see Section 3).
The FICI was interpreted as: synergism (<0.35), additivity (0.35–0.75), indifference (0.75–1.4), or antagonism (>1.4). FICI is designed to determine the type of Lev interaction with adjuvants.
as §1, with “After 24 h, the diameters of the growth inhibition zones were measured.” left out, “Optical density measurements at 600 nm were taken at various times (0, 3, and 18 h) to determine the number of cells.” left out, “MIC50 and MIC90 are defined as concentrations at which the inhibition of bacterial growth by 50 and 90% is noticeable, respectively.” left out
The FICI was interpreted as: synergism (<0.35), additivity (0.35–0.75), indifference (0.76–1.4), or antagonism (>1.4). The essence of this expression is to calculate the average change in the effective concentration compared to MIC. Note that the most important parameter corresponds to a decrease in MIC of Lev. However, FICI is designed to determine the type of interaction Lev with adjuvants.

[4] = physchem; settings: 22 °C, pH 6.2, water
Experimental: (3) Solubility of X in water C0 = [Xaq] = A/(ε · l) was determined by UV absorbance after centrifugation of samples (10 min, 10,000× g). l = 1 cm. ε—molar absorbance coefficient (Figure 1C).

[5] = NCIB8054, B. subtilis 7 × 10^6 CFU, agar diffusion test, inclusion complexes with MCD, LB pH 7.2, 37 °C, 20 h, read-out: MIC

With `C=CCc1cc(OC)c2c(c1OC)OCO2` [Apiol] the Kd [1] was 4 ± 0.3 mM, the MIC ([2]; NCIB8054, 20 h, pH 7.2) was 5300 µg/mL (≈ 23.8 mM) and the “decrease of MICLev in the presence of adjuvant” value ([3]; E. coli) was “up to twice”. For the same molecule, the “D, diameter of bacterial inhibition zone surrounding Lev–MCD with APAB-MCD” value ([3]; E. coli, CLev 0.1 μg/mL) was 14.5 mm, the “ϕLev = (D/DLev)^2” value ([3]; E. coli, CLev 0.1 μg/mL) was 1.6 and the FICI ([3]; E. coli, CLev 0.1 μg/mL) was 0.35. The “D, diameter of bacterial inhibition zone surrounding Lev–MCD with APAB-MCD” value ([3]; E. coli, CLev 0.15 μg/mL) was 14 mm, the “ϕLev = (D/DLev)^2” value ([3]; E. coli, CLev 0.15 μg/mL) was 2.0 and the FICI ([3]; E. coli, CLev 0.15 μg/mL) was 0.20.
For `C=CCc1ccc(O)c(OC)c1` [Eugenol, 4-allyl-2-methoxyphenol], the Kd [1] was 4.1 ± 0.3 mM, the MIC [2, 5] was 1000 µg/mL (≈ 6.09 mM) and the “D, diameter of bacterial inhibition zone surrounding Lev–MCD with APAB-MCD” value ([3]; E. coli, CLev 0.03 μg/mL) was 14 mm. The “ϕLev = (D/DLev)^2” value ([3]; E. coli, CLev 0.03 μg/mL) was 2.0, the FICI ([3]; E. coli, CLev 0.03 μg/mL) was 0.30 and the “D, diameter of bacterial inhibition zone surrounding Lev–MCD with APAB-MCD” value ([3]; E. coli, CLev 0.05 μg/mL) was 17 mm. For the same molecule, the “ϕLev = (D/DLev)^2” value ([3]; E. coli, CLev 0.05 μg/mL) was 2.9, the FICI ([3]; E. coli, CLev 0.05 μg/mL) was 0.08 and the “D, diameter of bacterial inhibition zone surrounding Lev–MCD with APAB-MCD” value ([3]; E. coli, CLev 0.1 μg/mL) was 20 mm. For the same molecule, the “ϕLev = (D/DLev)^2” value ([3]; E. coli, CLev 0.1 μg/mL) was 3.3, the FICI ([3]; E. coli, CLev 0.1 μg/mL) was 0.10 and the “D, diameter of bacterial inhibition zone surrounding Lev–MCD with APAB-MCD” value ([3]; E. coli, CLev 0.15 μg/mL) was 15 mm. The “ϕLev = (D/DLev)^2” value ([3]; E. coli, CLev 0.15 μg/mL) was 2.3, the FICI ([3]; E. coli, CLev 0.15 μg/mL) was 0.05 and the “D, diameter of bacterial inhibition zone surrounding Lev–MCD with APAB-MCD” value ([3]; E. coli, CLev 0.5 μg/mL) was 26 mm. The “ϕLev = (D/DLev)^2” value ([3]; E. coli, CLev 0.5 μg/mL) was 1.3, the FICI ([3]; E. coli, CLev 0.5 μg/mL) was 1.3 and the “amplification effect of adjuvant” value ([3]; E. coli, at minimal Lev concentrations) was 3 fold. For the same molecule, the “MICLev in the presence of adjuvant” value ([3]; E. coli, reduced from 0.10 μg/mL) was 0.015 to 0.02 µg/mL, the “decrease of Lev MIC” value ([3]; conclusions, bacterium not stated) was 3–4 times and the “increase in Lev antibacterial activity / efficacy” value ([3]; listed as EG) was “over three-fold; also recorded: two–three-fold”. The solubility [4] was 8200 ± 200 µM (≈ 1350 µg/mL).
In the case of `CC1CCC(C(C)C)C(O)C1` (stereo not drawn) [Menthol], the MIC [2, 5] is reported as 2600 µg/mL (≈ 16.6 mM), the MIC ([2]; NCIB8054, B. subtilis, agar diffusion test, read-out: MIC) is reported as 2.6 µg/mL (≈ 0.0166 mM) and the “decrease of MICLev in the presence of adjuvant” value ([3]; E. coli) is reported as “up to twice”. The “D, diameter of bacterial inhibition zone surrounding Lev–MCD with APAB-MCD” value ([3]; E. coli, CLev 0.1 μg/mL) was 13.5 mm, the “ϕLev = (D/DLev)^2” value ([3]; E. coli, CLev 0.1 μg/mL) was 1.7 and the FICI ([3]; E. coli, CLev 0.1 μg/mL) was 0.02. For the same molecule, the “D, diameter of bacterial inhibition zone surrounding Lev–MCD with APAB-MCD” value ([3]; E. coli, CLev 0.15 μg/mL) was 14 mm, the “ϕLev = (D/DLev)^2” value ([3]; E. coli, CLev 0.15 μg/mL) was 2.0 and the FICI ([3]; E. coli, CLev 0.15 μg/mL) was 0.15. For the same molecule, the “increase in Lev antibacterial activity / efficacy” value [3] was “two–three-fold” and the solubility [4] was 230 ± 40 µM (≈ 35.9 µg/mL).
In the case of `C=CCc1ccc2c(c1)OCO2` [Safrole], the MIC [2, 5] is reported as 3900 µg/mL (≈ 24 mM), the “MICLev in the presence of adjuvant” value [3] is reported as 0.015 to 0.02 µg/mL and the “D, diameter of bacterial inhibition zone surrounding Lev–MCD with APAB-MCD” value ([3]; E. coli, CLev 0.15 μg/mL) is reported as 14.5 mm. For the same molecule, the “ϕLev = (D/DLev)^2” value ([3]; E. coli, CLev 0.15 μg/mL) was 2.1, the FICI ([3]; E. coli, CLev 0.15 μg/mL) was 0.09 and the solubility [4] was 800 ± 100 µM (≈ 130 µg/mL).
